The values below come from patent publication US20240238237A1, “CONJUGATED LINOLEIC ACID SUPPLEMENTATION FOR DISEASE TREATMENT” (VIRGINIA TECH INTELLECTUAL PROPERTIES, INC., priority 2021, published 2024).

Common to all, as to format: in vivo, mouse
The subject of assay [1] is WT, PWS (Snord116m+/p−) and PWS-KO (Snord116m−/p−) mice. The assay is described as follows: Weekly body weight, fat and lean mass (NMR), rectal temperature and food intake, Example 1. As to the method:
All animal protocols were approved by the Institutional Animal Care and Use Commit-tee at Virginia Tech. Mice with the Snord116 paternal deletion (B6[Cg]-Snord116tm1.1Uta/J Stock No: 008149|1-loxp (KO), Snord116del) were obtained from Jackson Laboratories and maintained on a C57Bl/6 background. Genotyping and breeding were performed as reported. WT mice for the study were siblings of either the PWS (Snord116m+/p−) or PWS-KO (Snord116m−/p−) mice. PWS mice were generated by crossing WT females and male mice who were Snord116m−/p+. Breeder males (Snord116m−/p+) were generated in separate crosses to inherited their deleted allele from a maternal chromosome so that they were considered phenotypically normal in regards to Snord116 expression. PWS-KO (Snord116m−/p−) mice were generated by using non-sibling male and female mice of the genotype Snord116m−/p+ who had inherited their deleted allele maternally. In this type of mating, 50% of the offspring would be heterozygous (and never used for mating or the study, as the origin of their deleted allele could not be determined), and 25% each would have WT alleles or would be PWS-KO. Mice were housed at room temperature at about 22° C. with 12 h light/dark cycles at 7 a.m. and 7 p.m. and ad-libitum access to food (4.5% crude fat) and water. Mice were weaned at 3 weeks old, genotyped using an ear snip, […]. ear tagged, and housed with littermates of the same sex. For tissue dissection, mice were euthanized by CO2 asphyxiation between 12 p.m. and 2 p.m.
Body weight, fat, and lean mass, rectal temperature, and food intake were measured weekly. For body weight, fat, and lean mass measurements, mice were weighed on Mondays using a standard scale, and then placed in a Bruker (Billrica, MA, USA) LF90 NMR machine using the mouse holder. Measurements were recorded in grams for fat and lean mass.
All values were expressed as mean+SEM unless indicated otherwise. Comparison of means between groups and calculation of p-values were made using JMP Pro15 software (Cary, NC, USA), with Tukey's post hoc analysis for multiple comparisons when overall p-values in the comparison were significant. For the responses of weight, fat, lean mass, temperature, and food intake shown in figures, a fitted least squares regression with effects of genotype, treatment, and genotype×treatment was analyzed for Week 12 data only. Responses of these dependent variables were also analyzed across the 12-week time period, adding in effects of week, week×treatment, and week×genotype. […] The responses that had pre-post measures (wheel running, elevated plus, fasting glucose, glucose tolerance) were analyzed separately for the pre and post time periods (no effect of time). Animals were grouped together for the pre time period, regardless of their assigned data, as all animals were on standard mouse chow at that time. […] Rotarod data were collected only during the post-period and analyzed with a response of time and effects of genotype, treatment, and genotype×treatment. For area-under-the-curve calculations, the formula function in JMP was used to calculate the area for individual animals pre and post, and then fit least squares regression model used for effects of genotype, treatment, and genotype×treatment.

The test system is the same in assay [2]. Nature of the assay: Indirect calorimetry and home-cage activity (TSE system). To be noted: end of study, TSE metabolic chamber. As to the method: Indirect calorimetry and locomotor activity measurements were performed using a Labmaster Mouse calorimetry and Locomotor system (TSE Systems, Bad Homburg, Germany) in the Metabolism Core Virginia Tech. VO2 consumption and VCO2 production in individual mice were measured using metabolic chambers. Air going into the TSE system was at 20.9% oxygen, 0.05% CO2, and the airflow rate was 0.4 L/min (Airgas, Christiansburg, VA, USA). Data were collected every 15 min. Body composition was measured, as described above, prior to assessment of the animals using the TSE system. A photobeam-based ac-tivity monitoring system detected and recorded ambulatory movements. The results were used to calculate the respiratory exchange ratio (RER) and total energy expenditure/gram lean mass. Energy expenditure (KJ/h) was calculated using the formula VO2×(3.815+(1.232×RER))×4.1868 and normalized to the lean mass determined by NMR. All parameters were measured continuously and simultaneously for 48 h after approximately 20 h of adaptation for single-housed mice. The average values for the last 24-48 h were used for analysis. To calculate hourly activity, the average of two-hour bins of activity from the last 24 h period was plotted. […]

Assay [3] concerns cecal bacterial communities. Nature of the assay: Cecum microbiome analysis (16S rRNA sequencing). The protocol: Cecal samples were flash-frozen in liquid nitrogen and stored at −80° C. DNA was isolated from cecal content using a DNeasy PowerSoil Pro Kit (Qiagen #47014) and the TissueLyser II (Qiagen #85300). Fifty nanograms of genomic DNA was utilized for amplifi-cation of the V4 variable region of the 16S rRNA gene using 515F/806R primers. Forward and reverse primers were barcoded to accommodate multiplexing up to 384 samples per run as described by Kozich and colleagues. Paired-end sequencing (2×250 bp) of pooled amplicons was carried out using an Illumina Miseq platform with ˜30% PhiX DNA.
Demultiplexing, adapter trimming, and generating the fastq files were performed au-tomatically using the Miseq Reporter on the instrument computer. Bioinformatics analysis was then conducted using the QIIME 2 platform. Denoising was performed with an initial quality filtering followed by the Deblur algorithm. Representative amplicon sequence variants (ASVs) were used to generate a phylogenetic tree with FastTree, and taxonomy was assigned using a Naive Bayes classifier trained on the Greengenes 13_8 reference. To evaluate diversity metrics, samples were rarefied to an even depth of 4397 quality-filtered reads. Beta diversity was assessed using the weighted Unifrac distances and visualized using the principal coordinate analysis (PCoA) plot.
Statistical analyses for microbiome data were performed in R v4.0.5. Differences in beta diversity were evaluated using permutational multivariate analysis of variance (PERMANOVA) with 999 permutations and including the weighted Unifrac distance matrix. The Kruskal-Wallis test was used to evaluate alpha metrics and taxonomic differences and the Dunn's test was used to evaluate pairwise multiple comparisons, with p-values corrected for multiple testing using the false discovery rate (FDR) approach.

For the substance conjugated linoleic acid [CLA], the “Body fat, WT control diet more than WT CLA diet” value in assay [1] (WT mice, end of study) is recorded as about 4 g. In addition, the “Reduction in body fat levels with treatment” value in assay [1] (all genotypes, vs control HFD alone) is on record as 3.6 fold. Also, in assay [1] (all three genotypes, 20% fat diet, vs control diet), the “Body weight, overall effect of CLA diet” value is reported as “significant reductions in body weight overall for the three genotypes”. The “Body weight, post hoc per genotype” value in assay [1] (each genotype on CLA diet vs control diet) is “significant body weight reductions”. In assay [1] (whole model, 12 weeks), the “Lean mass, treatment effect” value is on record as “without a treatment effect”. Further, the Home-cage activity entry in assay [2] was “not significant”. Besides, the “Relative abundance of Cyanobacteria” value in assay [3] (CLA vs control diet, p=0.04) was “lower”. The Firmicutes phylum overall entry in assay [3] (H=3.74, p=0.59) is recorded as “not significantly affected”. The Sutterella sp. entry in assay [3] (H=13.8, p=0.02) is reported as “significantly increased”. The Ruminococcus sp. result in assay [3] (all genotypes) is reported as “reduced”. The Turicibacter sp. entry in assay [3] (all genotypes, H=15.7, p=0.008) is given as “significantly reduced”. Besides, the “Relative abundance of the other phyla” value in assay [3] (between diets, p>0.09) is recorded as “similar”. Moreover, in assay [3] (control vs CLA, p≤0.02), the α-diversity metrics result is listed as “differed”. Besides, in assay [3] (weighted Unifrac), the β-diversity measures result is “significantly impacted”.
